Source: patent publication US7829560B2, “1,4-disubstituted naphthalenes as inhibitors of P38 MAP kinase” (Arqule, Inc., priority 2004, dated 2010)

What was measured:
[1] = tested on: TNFα release from THP-1 cells; assay: Inhibition of TNFα release from LPS-stimulated THP-1 cells, ELISA; type: cell-based; conditions: Homo sapiens, THP-1, THP-1 cells, read-out: [CELL] THP-1, IC50, TNF ALPHA, ELISA
In short: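 Human THP-1 monocytes, 10^6 cells/ml in RPMI with 10% FBS, no serum or 1% HSA, preincubated 30 min at 37 °C with compound (≤0.5% DMSO), then stimulated with 10 μg/ml LPS for 18 h. Supernatant TNFα measured by ELISA; IC50 from non-linear dose-response regression.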

p38α = biological target: T1, p38α (Homo sapiens, UniProt Q16539); assay: p38 MAP Kinase assay: inhibition of ATF2 phosphorylation, ELISA; type: biochemical; conditions: for IC50: ATF2 phosphorylation, read-out: [ENZ] P38 ALPHA, IC50, ELISA; for inhibition at 10 µM: substrate ATF2, read-out: [ENZ] P38 ALPHA, PCT INH, ELISA (10 uM;ATF2) (Percent)
T1 construct: p38 MAP Kinases are recombinant human full-length proteins with an amino-terminal GST fusion; GST (N); purchased Upstate Biotechnology Inc; host or cells: E. coli
T1 sequence (Q16539 whole entry, the tested form may be a part): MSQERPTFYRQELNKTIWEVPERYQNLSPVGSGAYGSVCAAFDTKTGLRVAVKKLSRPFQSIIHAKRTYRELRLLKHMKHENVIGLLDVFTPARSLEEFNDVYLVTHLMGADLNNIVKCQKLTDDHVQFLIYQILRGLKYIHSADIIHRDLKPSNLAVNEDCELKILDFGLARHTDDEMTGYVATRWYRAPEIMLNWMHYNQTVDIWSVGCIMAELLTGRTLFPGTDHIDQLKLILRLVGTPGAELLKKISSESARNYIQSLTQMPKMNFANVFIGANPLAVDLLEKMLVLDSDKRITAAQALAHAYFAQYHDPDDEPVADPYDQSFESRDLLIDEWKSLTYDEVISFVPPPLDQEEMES
In short: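 GST-tagged full-length human p38 MAP kinase with GST-ATF2 (aa 19–96; 1.25 μM) and 40 μM ATP in HEPES pH 7.5 buffer, without (Method I) or with (Method II) 1% human serum albumin. Compound pre-incubated 15 min at room temperature; reaction 30 min at 37 °C; ATF2 Thr69 phosphorylation measured by ELISA (A450).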

IC50 [1] [µM]	IC50 (p38α) [µM]	inhibition at 10 µM (p38α) [%]	SMILES
2.76	2.46		Cc1ccc(N2CCOCC2)cc1C(=O)Nc1ccc(OCCN2CCOCC2)c2ccccc12 [Compound B39, 2-Methyl-5-morpholin-4-yl-N-[4-(2-morpholin-4-yl-ethoxy)-naphthalen-1-yl]-benzamide]
> 10	10		C[C@@H]1CN(c2cccc(C(=O)Nc3ccc(OCCN4CCOCC4)c4ccccc34)c2)C[C@H](C)O1 [Compound B31]
> 10	8.96	65	C[C@@H]1CN(CCOc2ccc(NC(=O)c3cccc(N4CCOCC4)c3)c3ccccc23)C[C@H](C)O1 [Compound B19]
> 10	0.513		CC(C)(C)CNc1cc(F)cc(C(=O)Nc2ccc(OCCN3CCOCC3)c3ccccc23)c1 [Compound B209, 3-[(2,2-Dimethylpropyl)amino]-5-fluoro-N-[4-(2-morpholin-4-ylethoxy)-1-naphthyl]benzamide]
> 10	> 10		CC(=O)c1cccc(-c2cccc(C(=O)Nc3ccc(OCCN4CCOCC4)c4ccccc34)c2)c1 [Compound B279]
0.0238	0.0099		CN(C)CC(C)(C)CNc1nccc(Oc2ccc(NC(=O)c3cc(F)cc(N4CCOCC4)c3)c3ccccc23)n1 [Compound B317, N-{4-[2-(3-Dimethylamino-2,2-dimethyl-propylamino)-pyrimidin-4-yloxy]-naphthalen-1-yl}-3-fluoro-5-morpholin-4-yl-benzamide]
0.475	0.0555		O=C(Nc1ccc(Oc2ccnc(N3CCC(F)(F)CC3)n2)c2ccccc12)c1cc(F)cc(N2CCOCC2)c1 [Compound B361]
1.03	0.622	88	Cc1cc(C(=O)Nc2ccc(OCCN3CCOCC3)c3ccccc23)cc(N2CCCC(C)C2)n1 (centres unmarked) [Compound B153, 3,6′-Dimethyl-3,4,5,6-tetrahydro-2H-[1,2′]bipyridinyl-4′-carboxylic acid [4-(2-morpholin-4-yl-ethoxy)-naphthalen-1-yl]-amide]
> 10	> 10		CC(C)(C)OC(=O)Nc1cccc(C(=O)Nc2ccc(OCCN3CCOCC3)c3ccccc23)c1 [Compound B63]
0.879	1.2		O=C(Nc1ccc(CN2CCOCC2)c2ccccc12)c1cc(F)cc(N2CCOCC2)c1 [Compound B316, 3-Fluoro-5-morpholin-4-yl-N-(4-morpholin-4-ylmethyl-naphthalen-1-yl)-benzamide]
> 10	> 10		O=C(Nc1ccc(OCCN2CCOCC2)c2ccccc12)c1cccc(N2CCC3CCCCC3C2)n1 (centres unmarked) [Compound B71]
> 10	> 10		O=C(Nc1ccc(OCCN2CCOCC2)c2ccccc12)c1cccc(-c2ccc3c(c2)OCO3)c1 [Compound B273]
> 10	1.09	72.5	O=C(Nc1ccc(OCCN2CCC3(CC2)OCCO3)c2ccccc12)c1cc(F)cc(N2CCCCC2)c1 [Compound B159, N-{4-[2-(1,4-Dioxa-8-aza-spiro[4.5]dec-8-yl)-ethoxy]-naphthalen-1-yl}-3-fluoro-5-piperidin-1-yl-benzamide]
2.71	4.16	67	O=C(Nc1ccc(OCCN2CCOCC2)c2ccccc12)c1cccc(-c2ccncc2)c1 [Compound B86, N-[4-(2-Morpholin-4-yl-ethoxy)-naphthalen-1-yl]-3-pyridin-4-yl-benzamide]
> 10	> 10		CC(C)(C)C1CCC(Oc2cc(F)cc(C(=O)Nc3ccc(OCc4ccncc4)c4ccccc34)c2)CC1 (centres unmarked) [Compound B236]
0.782	1.88	68.5	O=C(Nc1ccc(OCCN2CCOCC2)c2ccccc12)c1ccnc(N2CCCCC2)c1 [Compound B127, 3,4,5,6-Tetrahydro-2 H-[1,2′]bipyridinyl-4′-carboxylic acid [4-(2-morpholin-4-yl-ethoxy)-naphthalen-1-yl]-amide]
0.162	0.0061		O=C(Nc1ccc(Oc2ccnc(N3CCC(CO)CC3)n2)c2ccccc12)c1cc(F)cc(N2CCCCC2)c1 [Compound B415, 3-Fluoro-N-[4-({2-[4-(hydroxymethyl)piperidin-1-yl]pyrimidin-4-yl}oxy)-1-naphthyl]-5-piperidin-1-ylbenzamide]
> 10	> 10		CC(=O)c1ccc(-c2cccc(C(=O)Nc3ccc(OCCN4CCOCC4)c4ccccc34)c2)cc1 [Compound B274]
2.53	2.72	71	Cc1cc(C(=O)Nc2ccc(OCCN3CCOCC3)c3ccccc23)cc(N2CCC(C)CC2)n1 [Compound B154, 4,6′-Dimethyl-3,4,5,6-tetrahydro-2H-[1,2′]bipyridinyl-4′-carboxylic acid [4-(2-morpholin-4-yl-ethoxy)-naphthalen-1-yl]-amide]

IC50 [1] [µM]	IC50 (p38α) [µM]	inhibition at 10 µM (p38α) [%]	SMILES
> 10	> 10		Cc1cccc(C(=O)Nc2ccc(OCCN3CCOCC3)c3ccccc23)c1 [Compound B56]
0.765	5.06		CC1CCN(c2cc(F)cc(C(=O)Nc3ccc(Oc4ccnc(N5CCOCC5)n4)c4ccccc34)c2)CC1 [Compound B265, 3-Fluoro-5-(4-methylpiperidin-1-yl)-N-{4-[(2-morpholin-4-ylpyrimidin-4-yl)oxy]-1-naphthyl}benzamide]
> 10	> 10		COc1ccc(-c2cccc(C(=O)Nc3ccc(OCCN4CCOCC4)c4ccccc34)c2)cc1F [Compound B290]
4.23	1.02		O=C(Nc1ccc(OCCN2CCOCC2)c2ccccc12)c1cc(F)cc(N2CCOCC2)c1 [Compound B206, 3-Fluoro-5-morpholin-4-yl-N-[4-(2-morpholin-4-ylethoxy)-1-naphthyl]benzamide]
> 10	21.8		O=C(Nc1ccc(OCCN2CCOCC2)c2ccccc12)c1ccccc1 [Compound B26]
0.117	0.0196		O=C(Nc1ccc(Oc2ccnc(NC3CCS(=O)(=O)C3)n2)c2ccccc12)c1cc(F)cc(N2CCCCC2)c1 (centres unmarked) [Compound B406]
5	0.934		Cc1ccc(C)c(-c2cccc(C(=O)Nc3ccc(OCCN4CCOCC4)c4ccccc34)c2)c1 [Compound B287, 2′,5′-dimethyl-biphenyl-3-carboxylic acid [4-(2-morpholin-4-yl-ethoxy)-naphthalen-1-yl]-amide]
> 10	> 100		O=C(Nc1ccc(OCCN2CCOCC2)c2ccccc12)c1cc(Br)cc(I)c1 [Compound B27]
0.042	0.0305		O=C(Nc1ccc(Oc2ccnc(NC3CCCC3)n2)c2ccccc12)c1cc(F)cc(N2CCOCC2)c1 [Compound B250, N-(4-{[2-(Cyclopentylamino)pyrimidin-4-yl]oxy}-1-naphthyl)-3-fluoro-5-morpholin-4-ylbenzamide]
0.878	0.0687		CC1CCCN1c1nccc(Oc2ccc(NC(=O)c3cc(F)cc(N4CCOCC4)c3)c3ccccc23)n1 (centres unmarked) [Compound B355]
> 10	> 10		O=C(Nc1ccc(OCCN2CCOCC2)c2ccccc12)c1cc(F)cc(N2CCC3CCCCC3C2)c1 (centres unmarked) [Compound B213]
0.336	0.0127		CC1=NCCN1c1nccc(Oc2ccc(NC(=O)c3cc(F)cc(N4CCCCC4)c3)c3ccccc23)n1 [Compound B417, 3-Fluoro-N-(4-{[2-(2-methyl-4,5-dihydro-1 H-imidazol-1-yl)pyrimidin-4-yl]oxy}-1-naphthyl)-5-piperidin-1-ylbenzamide]
> 10	> 10		O=C(Nc1ccc(OCCN2CCOCC2)c2ccccc12)c1ccc(N2CCOCC2)cc1 [Compound B29]
6.15	5.75	50.5	CC(=O)N1CCN(c2cc(C(=O)Nc3ccc(OCCN4CCOCC4)c4ccccc34)ccn2)CC1 [Compound B123, 2-(4-Acetyl-piperazin-1-yl)-N-[4-(2-morpholin-4-yl-ethoxy)-naphthalen-1-yl]-isonicotinamide]
> 1	0.107		O=C(Nc1ccc(Oc2ccnc(N3CCCCC3)n2)c2ccccc12)c1cc(F)cc(N2CCCCC2)c1 [Compound B375, 3-Fluoro-5-piperidin-1-yl-N-{4-[(2-piperidin-1-ylpyrimidin-4-yl)oxy]-1-naphthyl}benzamide]
> 10	> 10		COc1ccc(-c2cccc(C(=O)Nc3ccc(OCCN4CCOCC4)c4ccccc34)c2)cc1 [Compound B284]
6.63	1.42		CC1CCN(c2cc(F)cc(C(=O)Nc3ccc(OCCN4CCNC(=O)C4)c4ccccc34)c2)CC1 [Compound B197, 3-Fluoro-5-(4-methyl-piperidin-1-yl)-N-{4-[2-(3-oxo-piperazin-1-yl)-ethoxy]-naphthalen-1-yl}-benzamide]
3.58	0.876		CC1CCN(c2cc(C(=O)Nc3ccc(OCCN4CCOCC4)c4ccccc34)cc(Cl)n2)CC1 [Compound B218]
0.256	0.363		CC1CCN(c2cc(F)cc(C(=O)Nc3ccc(Oc4ccnc(NC5CCCC5)n4)c4ccccc34)c2)CC1 [Compound B266, N-(4-{[2-(Cyclopentylamino)pyrimidin-4-yl]oxy}-1-naphthyl)-3-fluoro-5-(4-methylpiperidin-1-yl)benzamide]
